Test results reported in the NIST ThermoML archive (doi:10.1021/je8001255).
Numbers after ± are expanded uncertainties.

Experiment: an = ratio of the nth substance listed, in mol/kg
Details: 100 kPa, Liquid; for electrical conductivity: Alternating current cell with electrodes

O=S(=O)([O-])[O-].[Zn+2] [zinc sulfate] + O
electrical conductivity (278.15 K, a1 = 0.00628): 0.0627 ± 0.0063 S/m | electrical conductivity (278.15 K, a1 = 0.02608): 0.204 ± 0.02 S/m | electrical conductivity (278.15 K, a1 = 0.05064): 0.333 ± 0.033 S/m | electrical conductivity (278.15 K, a1 = 0.1023): 0.581 ± 0.058 S/m | electrical conductivity (278.15 K, a1 = 0.2077): 1.02 ± 0.1 S/m | electrical conductivity (278.15 K, a1 = 0.4748): 1.92 ± 0.19 S/m | electrical conductivity (278.15 K, a1 = 0.7453): 2.62 ± 0.26 S/m | electrical conductivity (278.15 K, a1 = 0.9563): 3.01 ± 0.3 S/m | electrical conductivity (278.15 K, a1 = 1.191): 3.27 ± 0.33 S/m | electrical conductivity (278.15 K, a1 = 1.298): 3.34 ± 0.33 S/m | electrical conductivity (278.15 K, a1 = 1.489): 3.32 ± 0.33 S/m | electrical conductivity (278.15 K, a1 = 1.623): 3.22 ± 0.32 S/m | electrical conductivity (278.15 K, a1 = 1.826): 2.96 ± 0.3 S/m | electrical conductivity (283.15 K, a1 = 0.00628): 0.072 ± 0.0072 S/m | electrical conductivity (283.15 K, a1 = 0.02608): 0.233 ± 0.023 S/m | electrical conductivity (283.15 K, a1 = 0.05064): 0.382 ± 0.038 S/m | electrical conductivity (283.15 K, a1 = 0.1023): 0.666 ± 0.067 S/m | electrical conductivity (283.15 K, a1 = 0.2077): 1.17 ± 0.12 S/m | electrical conductivity (283.15 K, a1 = 0.4748): 2.2 ± 0.22 S/m | electrical conductivity (283.15 K, a1 = 0.7453): 3 ± 0.3 S/m | electrical conductivity (283.15 K, a1 = 0.9563): 3.46 ± 0.35 S/m | electrical conductivity (283.15 K, a1 = 1.191): 3.78 ± 0.38 S/m | electrical conductivity (283.15 K, a1 = 1.298): 3.87 ± 0.39 S/m | electrical conductivity (283.15 K, a1 = 1.489): 3.87 ± 0.39 S/m | electrical conductivity (283.15 K, a1 = 1.623): 3.77 ± 0.38 S/m | electrical conductivity (283.15 K, a1 = 1.826): 3.49 ± 0.35 S/m | electrical conductivity (288.15 K, a1 = 0.00628): 0.0816 ± 0.0082 S/m | electrical conductivity (288.15 K, a1 = 0.02608): 0.264 ± 0.026 S/m | electrical conductivity (288.15 K, a1 = 0.05064): 0.432 ± 0.043 S/m | electrical conductivity (288.15 K, a1 = 0.1023): 0.753 ± 0.075 S/m | electrical conductivity (288.15 K, a1 = 0.2077): 1.32 ± 0.13 S/m | electrical conductivity (288.15 K, a1 = 0.4748): 2.49 ± 0.25 S/m | electrical conductivity (288.15 K, a1 = 0.7453): 3.4 ± 0.34 S/m | electrical conductivity (288.15 K, a1 = 0.9563): 3.85 ± 0.38 S/m | electrical conductivity (288.15 K, a1 = 1.191): 4.31 ± 0.43 S/m | electrical conductivity (288.15 K, a1 = 1.298): 4.42 ± 0.44 S/m | electrical conductivity (288.15 K, a1 = 1.489): 4.45 ± 0.44 S/m | electrical conductivity (288.15 K, a1 = 1.623): 4.35 ± 0.43 S/m | electrical conductivity (288.15 K, a1 = 1.826): 4.07 ± 0.41 S/m | electrical conductivity (293.15 K, a1 = 0.00628): 0.0916 ± 0.0092 S/m | electrical conductivity (293.15 K, a1 = 0.02608): 0.295 ± 0.03 S/m | electrical conductivity (293.15 K, a1 = 0.05064): 0.483 ± 0.048 S/m | electrical conductivity (293.15 K, a1 = 0.1023): 0.841 ± 0.084 S/m | electrical conductivity (293.15 K, a1 = 0.2077): 1.48 ± 0.15 S/m | electrical conductivity (293.15 K, a1 = 0.4748): 2.79 ± 0.28 S/m | electrical conductivity (293.15 K, a1 = 0.7453): 3.81 ± 0.38 S/m | electrical conductivity (293.15 K, a1 = 0.9563): 4.41 ± 0.44 S/m | electrical conductivity (293.15 K, a1 = 1.191): 4.86 ± 0.49 S/m | electrical conductivity (293.15 K, a1 = 1.298): 5 ± 0.5 S/m | electrical conductivity (293.15 K, a1 = 1.489): 5.05 ± 0.51 S/m | electrical conductivity (293.15 K, a1 = 1.623): 4.96 ± 0.5 S/m | electrical conductivity (293.15 K, a1 = 1.826): 4.68 ± 0.47 S/m | electrical conductivity (298.15 K, a1 = 0.00628): 0.102 ± 0.01 S/m | electrical conductivity (298.15 K, a1 = 0.02608): 0.327 ± 0.033 S/m | electrical conductivity (298.15 K, a1 = 0.05064): 0.534 ± 0.053 S/m | electrical conductivity (298.15 K, a1 = 0.1023): 0.931 ± 0.093 S/m | electrical conductivity (298.15 K, a1 = 0.2077): 1.63 ± 0.16 S/m | electrical conductivity (298.15 K, a1 = 0.4748): 3.09 ± 0.31 S/m | electrical conductivity (298.15 K, a1 = 0.7453): 4.23 ± 0.42 S/m | electrical conductivity (298.15 K, a1 = 0.9563): 4.91 ± 0.49 S/m | electrical conductivity (298.15 K, a1 = 1.191): 5.42 ± 0.54 S/m | electrical conductivity (298.15 K, a1 = 1.298): 5.59 ± 0.56 S/m | electrical conductivity (298.15 K, a1 = 1.489): 5.68 ± 0.57 S/m | electrical conductivity (298.15 K, a1 = 1.623): 5.6 ± 0.56 S/m | electrical conductivity (298.15 K, a1 = 1.826): 5.32 ± 0.53 S/m | mass density (298.15 K, a1 = 0.00628): 998.09 ± 2.2 kg/m3 | mass density (298.15 K, a1 = 0.02608): 1001.41 ± 2.2 kg/m3 | mass density (298.15 K, a1 = 0.05064): 1005.55 ± 2.2 kg/m3 | mass density (298.15 K, a1 = 0.1023): 1014.14 ± 2.2 kg/m3 | mass density (298.15 K, a1 = 0.2077): 1031.96 ± 2.4 kg/m3 | mass density (298.15 K, a1 = 0.4748): 1078.96 ± 2.6 kg/m3 | mass density (298.15 K, a1 = 0.7453): 1129.79 ± 3 kg/m3 | mass density (298.15 K, a1 = 0.9563): 1171.99 ± 3.2 kg/m3 | mass density (298.15 K, a1 = 1.191): 1221.75 ± 3.6 kg/m3 | mass density (298.15 K, a1 = 1.298): 1250.72 ± 3.8 kg/m3 | mass density (298.15 K, a1 = 1.489): 1293.66 ± 4.1 kg/m3 | mass density (298.15 K, a1 = 1.623): 1326.7 ± 4.3 kg/m3 | mass density (298.15 K, a1 = 1.826): 1377.89 ± 4.7 kg/m3 | electrical conductivity (303.15 K, a1 = 0.00628): 0.112 ± 0.011 S/m | electrical conductivity (303.15 K, a1 = 0.02608): 0.359 ± 0.036 S/m | electrical conductivity (303.15 K, a1 = 0.05064): 0.585 ± 0.059 S/m | electrical conductivity (303.15 K, a1 = 0.1023): 1.02 ± 0.1 S/m | electrical conductivity (303.15 K, a1 = 0.2077): 1.79 ± 0.18 S/m | electrical conductivity (303.15 K, a1 = 0.4748): 3.38 ± 0.34 S/m | electrical conductivity (303.15 K, a1 = 0.7453): 4.65 ± 0.47 S/m | electrical conductivity (303.15 K, a1 = 0.9563): 5.41 ± 0.54 S/m | electrical conductivity (303.15 K, a1 = 1.191): 6 ± 0.6 S/m | electrical conductivity (303.15 K, a1 = 1.298): 6.19 ± 0.62 S/m | electrical conductivity (303.15 K, a1 = 1.489): 6.32 ± 0.63 S/m | electrical conductivity (303.15 K, a1 = 1.623): 6.25 ± 0.63 S/m | electrical conductivity (303.15 K, a1 = 1.826): 5.99 ± 0.6 S/m | electrical conductivity (308.15 K, a1 = 0.00628): 0.122 ± 0.012 S/m | electrical conductivity (308.15 K, a1 = 0.02608): 0.391 ± 0.039 S/m | electrical conductivity (308.15 K, a1 = 0.05064): 0.638 ± 0.064 S/m | electrical conductivity (308.15 K, a1 = 0.1023): 1.11 ± 0.11 S/m | electrical conductivity (308.15 K, a1 = 0.2077): 1.94 ± 0.19 S/m | electrical conductivity (308.15 K, a1 = 0.4748): 3.68 ± 0.37 S/m | electrical conductivity (308.15 K, a1 = 0.7453): 5.07 ± 0.51 S/m | electrical conductivity (308.15 K, a1 = 0.9563): 5.91 ± 0.59 S/m | electrical conductivity (308.15 K, a1 = 1.191): 6.57 ± 0.66 S/m | electrical conductivity (308.15 K, a1 = 1.298): 6.8 ± 0.68 S/m | electrical conductivity (308.15 K, a1 = 1.489): 6.97 ± 0.7 S/m | electrical conductivity (308.15 K, a1 = 1.623): 6.92 ± 0.69 S/m | electrical conductivity (308.15 K, a1 = 1.826): 6.67 ± 0.67 S/m
